# Test results from PubChem BioAssay AID1963844 (Molecular Pharmacology Branch, DTP, NCI, 2024).
# Test system: 422866-222-R5-J1-PDC complex spheroid viability
# Assay: Anticancer human tumor 422866-222-R5-J1-PDC patient-derived pancreatic adenocarcinoma cell line growth inhibition [POLQ]
# Settings: for IC50: curve of first compound; for viability, T/C: stronger effect = lower value
# Outline: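 PDC + HUVEC + MSC complex spheroids; POLQ inhibitors ± partner drugs; top conc. at/near clinical Cmax, else 10 microM (SN-38 1 microM), half-log dilutions; 37 degrees C, 5% CO2.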
# [1] = second compound 0.0316 µM, first compound 0.00316 µM
# [2] = second compound 0.0316 µM, first compound 0.01 µM
# [3] = second compound 0.0316 µM, first compound 0.0316 µM
# [4] = second compound 0.0316 µM, first compound 0.1 µM
# [5] = second compound 0.1 µM, first compound 0.00316 µM
# [6] = second compound 0.1 µM, first compound 0.01 µM
# [7] = second compound 0.1 µM, first compound 0.0316 µM
# [8] = second compound 0.1 µM, first compound 0.1 µM
# [9] = second compound 0.316 µM, first compound 0.00316 µM
# [10] = second compound 0.316 µM, first compound 0.01 µM
# [11] = second compound 0.316 µM, first compound 0.0316 µM
# [12] = second compound 0.316 µM, first compound 0.1 µM
# [13] = second compound 1 µM, first compound 0.00316 µM
# [14] = second compound 1 µM, first compound 0.01 µM
# [15] = second compound 1 µM, first compound 0.0316 µM
# [16] = second compound 1 µM, first compound 0.1 µM
# [17] = second compound 3.16 µM, first compound 0.00316 µM
# [18] = second compound 3.16 µM, first compound 0.01 µM
# [19] = second compound 3.16 µM, first compound 0.0316 µM
# [20] = second compound 3.16 µM, first compound 0.1 µM
# [21] = second compound 10 µM, first compound 0.00316 µM
# [22] = second compound 10 µM, first compound 0.01 µM
# [23] = second compound 10 µM, first compound 0.0316 µM
# [24] = second compound 10 µM, first compound 0.1 µM
# 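Also: spheroids exposed to compounds for one week before readout.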
# 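For viability, T/C in this document: percent of DMSO vehicle wells luminescence so 100% = untreated viability.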
structure (smiles),measurement,setting,value
COc1cccc(OCCCN)c1-c1cc(Nc2cnc(C#N)cn2)n[nH]1 + COC1C(OC(N)=O)C(O)C(Oc2ccc3c(O)c(NC(=O)c4ccc(O)c(CC=C(C)C)c4)c(=O)oc3c2C)OC1(C)C,IC50,second compound 0.0316 µM,4.59 nM
same,IC50,second compound 0.1 µM,4.16 nM
same,IC50,second compound 0.316 µM,< 3.16 nM
same,IC50,second compound 1 µM,< 3.16 nM
same,IC50,second compound 3.16 µM,5.14 nM
same,IC50,second compound 10 µM,< 3.16 nM
same,"viability, T/C",[1],55.9%
same,"viability, T/C",[2],37.4%
same,"viability, T/C",[3],33.7%
same,"viability, T/C",[4],30.7%
same,"viability, T/C","second compound 0.0316 µM, first compound 0.316 µM",26.7%
same,"viability, T/C","second compound 0.0316 µM, first compound 1 µM",34.3%
same,"viability, T/C",[5],53%
same,"viability, T/C",[6],42.1%
same,"viability, T/C",[7],32.3%
same,"viability, T/C",[8],29.5%
same,"viability, T/C","second compound 0.1 µM, first compound 0.316 µM",26.8%
same,"viability, T/C","second compound 0.1 µM, first compound 1 µM",42.6%
same,"viability, T/C",[9],48.5%
same,"viability, T/C",[10],39.9%
same,"viability, T/C",[11],28.5%
same,"viability, T/C",[12],37.7%
same,"viability, T/C","second compound 0.316 µM, first compound 0.316 µM",32.1%
same,"viability, T/C","second compound 0.316 µM, first compound 1 µM",35.1%
same,"viability, T/C",[13],55.9%
same,"viability, T/C",[14],39.3%
same,"viability, T/C",[15],32.7%
same,"viability, T/C",[16],37.3%
same,"viability, T/C","second compound 1 µM, first compound 0.316 µM",32.7%
same,"viability, T/C","second compound 1 µM, first compound 1 µM",47%
same,"viability, T/C",[17],54.7%
same,"viability, T/C",[18],43%
same,"viability, T/C",[19],41.4%
same,"viability, T/C",[20],30.1%
same,"viability, T/C","second compound 3.16 µM, first compound 0.316 µM",41.2%
same,"viability, T/C","second compound 3.16 µM, first compound 1 µM",32.8%
same,"viability, T/C",[21],54.2%
same,"viability, T/C",[22],38.7%
same,"viability, T/C",[23],39.1%
same,"viability, T/C",[24],38%
same,"viability, T/C","second compound 10 µM, first compound 0.316 µM",30.9%
same,"viability, T/C","second compound 10 µM, first compound 1 µM",38.4%
Cn1ncnc1[C@H]1c2n[nH]c(=O)c3cc(F)cc(c23)N[C@@H]1c1ccc(F)cc1 + COC1C(OC(N)=O)C(O)C(Oc2ccc3c(O)c(NC(=O)c4ccc(O)c(CC=C(C)C)c4)c(=O)oc3c2C)OC1(C)C,IC50,second compound 0.0316 µM,> 100 nM
same,IC50,second compound 0.1 µM,> 100 nM
same,IC50,second compound 0.316 µM,> 100 nM
same,IC50,second compound 1 µM,> 100 nM
same,IC50,second compound 3.16 µM,> 100 nM
same,IC50,second compound 10 µM,> 100 nM
same,"viability, T/C","second compound 0.0316 µM, first compound 0.000316 µM",108%
same,"viability, T/C","second compound 0.0316 µM, first compound 0.001 µM",100%
same,"viability, T/C",[1],90%
same,"viability, T/C",[2],88.6%
same,"viability, T/C",[3],86.6%
same,"viability, T/C",[4],83.1%
same,"viability, T/C","second compound 0.1 µM, first compound 0.000316 µM",119%
same,"viability, T/C","second compound 0.1 µM, first compound 0.001 µM",87.2%
same,"viability, T/C",[5],104%
same,"viability, T/C",[6],87%
same,"viability, T/C",[7],88.5%
same,"viability, T/C",[8],90.3%
same,"viability, T/C","second compound 0.316 µM, first compound 0.000316 µM",96.1%
same,"viability, T/C","second compound 0.316 µM, first compound 0.001 µM",104%
same,"viability, T/C",[9],98.8%
same,"viability, T/C",[10],78.9%
same,"viability, T/C",[11],87.3%
same,"viability, T/C",[12],85.3%
same,"viability, T/C","second compound 1 µM, first compound 0.000316 µM",99%
same,"viability, T/C","second compound 1 µM, first compound 0.001 µM",110%
same,"viability, T/C",[13],100%
same,"viability, T/C",[14],85.4%
same,"viability, T/C",[15],89.6%
same,"viability, T/C",[16],86.6%
same,"viability, T/C","second compound 3.16 µM, first compound 0.000316 µM",98%
same,"viability, T/C","second compound 3.16 µM, first compound 0.001 µM",87.1%
same,"viability, T/C",[17],105%
same,"viability, T/C",[18],100%
same,"viability, T/C",[19],89.8%
same,"viability, T/C",[20],95.6%
same,"viability, T/C","second compound 10 µM, first compound 0.000316 µM",78.8%
same,"viability, T/C","second compound 10 µM, first compound 0.001 µM",86.2%
same,"viability, T/C",[21],97.1%
same,"viability, T/C",[22],92.3%
same,"viability, T/C",[23],88.7%
same,"viability, T/C",[24],87.7%
